Patent publication US20150064763A1, “Method for Producing Hydrocarbons and Oxygen-containing Compounds from Biomass” (SWEDISH BIOFUELS AB, priority 2003, published 2015)

Target: formation of C3-C5 alcohols
Test: Inhibition of C3-C5 alcohols formation in alcohol fermentation by yeast
Format: cell-based
Settings: for inhibition constant: formation of C3-C5 alcohols in alcohol fermentation; for effect on formation of C3-C5 alcohols: present in the substrate in addition to valine, leucine and isoleucine
Procedure: Formation of C3-C5 alcohols is a result of active functioning of the process of deamination of amino acids in the yeast cells with formation of free ammonia. […] The yield of C3-C5 alcohols reached 3.1% of ethanol when pure valine, isoleucine, and leucine were the sole source of nitrogen nutrition of the yeast in the inventive fermentation process. Moreover, the maximum formation of C3-C5 alcohols in the inventive process of alcohol fermentation occurred at pH=6.0 of the medium and at 38° C. (standard conditions of alcohol fermentation pH 4.5-5.5; temperature 28-34° C.).

[1] = system with leucine as amino acid

| inhibition constant (system with valine as amino acid) | Compound | inhibition constant [1] | effect on formation of C3-C5 alcohols |
| --- | --- | --- | --- |
| – | N.N.O=S(=O)(O)O [ammonium sulphate] | 750 mg/L | – |
| 650 mg/L | NC(=O)C[C@H](N)C(=O)O [asparagine] | 730 mg/L | inhibits formation of C3-C5 alcohols |
| – | N [ammonium ions] | – | inhibits formation of C3-C5 alcohols |
